According to paper PMC9298260, “An Immunomodulatory Peptide Dendrimer Inspired from Glatiramer Acetate” (Angewandte Chemie (International Ed. in English), 2021):

What was measured:
[1] = test system: IL-1Ra release from human primary monocytes; test: IL-1Ra release from human primary monocytes, immunoassay (ELISA) of supernatants; assay type: cell-based; parameters: key: +: Ability to induce IL-1Ra on primary monocytes after 48 h of incubation; Ability to induce IL-1Ra on primary monocytes after 48 h of incubation; conditions: Table S1 initial library; primary monocytes, 48 h
Protocol: As an activity screen we focused on interleukin‐1 receptor antagonist (IL‐1Ra), a cytokine released by circulating antigen presenting cells (APC) in response to GA.[15, 35] […] To test our dendrimers, we quantified by immunoassay the release of IL‐1Ra from human primary monocytes of healthy donors, an easily accessible type of APC, stimulated or not by addition of lipopolysaccharide (LPS), which in our hands provided a reliable read‐out.[15] We tested at defined weight/volume (25 and 50 μg mL^−1 compound as typically reported for GA)[15, 35] to account for a possible activity increase with MW as often observed with dendrimers when using molarity. In the initial screen the levels of secreted IL‐1Ra remained below 1 ng mL^−1 for all the smaller test compounds as well as with the linear peptide analogs of GA.
Figure 2 Cytokine level of IL‐1Ra in supernatants of primary human monocytes of healthy donors treated with peptide dendrimers, evaluated by ELISA (bars, left vertical axis) and mRNA levels (▴, right vertical axis). […] For mRNA levels evaluation, 2×10^6 cells 3 mL^−1 in 6 well plates were incubated with 50 μg mL^−1 dendrimer or GA for 18 h. […]
Enzyme-linked immunosorbent assay (ELISA)
Monocytes (5×10^4 cells/200 μL well; 96-well plates) were preincubated for 1 h with or without compounds in RPMI-1640 medium supplemented with 10% heat-inactivated FBS, 50 μg/mL streptomycin, 50 U/mL penicillin, 2 mM L-glutamine, and 5 μg/mL polymyxin B sulfate and then cultured for 48 h in the presence or absence of LPS (100 ng/mL) (2). The production of IL-1Ra was measured in culture supernatants by commercially available enzyme immunoassay according to manufacture protocol.
Figure S2. Cytokine level of IL-1Ra in supernatants of monocytes for active dendrimers and analogues evaluated by ELISA assay on primary human monocytes of healthy donors. 5×10^4 cells/200 µL in 96 well plates, were incubated with dendrimers or GA as a control for 48 h in presence or absence of LPS (100 ng/mL), in a range of concentrations (50-25 µg/mL) (mean ± SD, n = 2 different experiments). The results are present as the difference between each sample and the non-treated sample to take into account the difference between base line for each donor.
Figure S3. Cytokine level of IL-1Ra in supernatants of monocytes for active dendrimers and […]
presence or absence of LPS (100 ng/mL), in a range of concentrations (100-12.5 µg/mL) (mean ± SD, n = 3 different experiments). […]

IL-1Ra = IL-1Ra time profile / mRNA level in monocytes, RT-qPCR; assay type: cell-based, human; conditions: 50 µg/mL, with and without LPS, without LPS detected only after 18 h
Protocol: Figure 2 Cytokine level of IL‐1Ra in supernatants of primary human monocytes of healthy donors treated with peptide dendrimers, evaluated by ELISA (bars, left vertical axis) and mRNA levels (▴, right vertical axis). […] For mRNA levels evaluation, 2×10^6 cells 3 mL^−1 in 6 well plates were incubated with 50 μg mL^−1 dendrimer or GA for 18 h.
To assess the activity requirements for 1 and 4, we performed a structure–activity relationship (SAR) study on the level of induced IL‐1Ra release measured by immunoassay, which we verified in selected cases at the mRNA level by RT‐qPCR (Figure 2).
For closer characterization, we selected dendrimer 1 due to its smaller size and the presence of a cysteine residue that could be used for labelling. […] Furthermore, dendrimer 1 induced the release of IL‐1Ra both with and without LPS activation, but in the latter case the effect was detected only after 18 h incubation (Figure S5e/f).
Enriched monocytes after Percoll centrifugation (4×10^6 cells/3 mL well; 6-well plates) were preincubated for 1 h with or without compounds in RPMI-1640 medium supplemented with 10% heat-inactivated FBS, 50 μg/mL streptomycin, 50 U/mL penicillin, 2 mM L-glutamine, and then incubated for the indicated duration. After the incubation cells were collected, total RNA was extracted, reverse transcribed and analyzed by SYBR Green Master Mix. […]

(KA)8(KAK)4(KEKA)2KAKEAYCA-NH2 [compound 1, G3 peptide dendrimer]
Act. (ability to induce IL-1Ra) [1]: +
release of IL-1Ra, time profile (IL-1Ra): induced
